Experimental data: PubChem BioAssay AID489019 (Sanford-Burnham Center for Chemical Genomics, 2010)
Active and inactive are the calls of the source. The rule behind the calls is not given here.

Tested on: HEK-293T NF-kB-Luc cytotoxicity, resazurin fluorescence, 15 h
Assay: HEK-293T viability loss, cell-based, uHTS hits, cytotoxicity control for B/T-cell NF-kB inhibitor project, dose response (AID 489019)

With `CC(=O)OC[C@]12CCC(C)=C[C@H]1O[C@@H]1[C@H](O)[C@@H](OC(C)=O)[C@@]2(C)[C@]12CO2` the IC50 was > 80 µM (inactive).
